Entries after “also recorded” stand apart in the source; their conditions may differ. Positions of bridges follow the written chain, without caps; N, C: chain ends. Non-standard residues stand in square brackets, D forms with d. Residues, ends and D or L forms follow the SMILES beside them. Chains are numbered I, II in the order given. Gly(N-piperonyl) = O=C(O)CNCc1ccc2c(c1)OCO2; N(4-MeOBn)Gly = COc1ccc(CNCC(=O)O)cc1; Nrpe = C[C@@H](NCC(=O)O)c1ccccc1; Nlys = NCCCCNCC(=O)O
What was measured:
[1] = Membrane lipid array (lipid dot blot); type: binding
Description: (FIGS. 11A and 11B). […] All of the bound lipids PS, PA, PI and PG have an overall negative charge as compared to unbound PC, PE and SM, which are neutral. This extra negative charge is responsible for interacting with positively charged region of PPS1, while the hydrophobic regions of both PPS1 and lipids may interact through van der Waals forces. […] The membrane was first blocked with 3% BSA in TBS-T for 1 hr. After washing with TBS-T, 2.5 μg/ml of biotin labeled PPS1D1 was added. Binding of biotin-PPS1D1 was detected by immunoblotting with streptavidin-HRP antibody. […] The binding affinity of PPS1D1 to PS appears to be strongest among all phospholipids as even at low lipid concentrations, PPS1D1 efficiently binds to it. (FIG. 11D). […] It is well documented that these phospholipids are predominantly present in the inner leaflet in normal cells. […] PC, PE, SM and PS are the most abundant phospholipids. Among these, only PS is an anionic phospholipid. PC and SM are present mostly in the outer leaflet, whereas PE and PS occupy most of inner leaflet with a variety of other anionic phospholipids. However, in stress conditions and in most tumor studied to date, PS and PE flip to the outer leaflet. PPS1D1 has six positively charged residues along with a hydrophobic region. […] However the binding affinity of PPSD1 to these anionic phospholipids is different. […] PPS1D1 could have a structure beyond a simple linear sequence contributing various levels of binding to PS, PA, PI and PG, maintaining highest binding affinity to PS.
Membrane lipid array: Membrane lipid arrays were purchased from Echelon Biosciences. Membranes were blocked in 3% BSA in TBS-T for one hour then incubated with 2.5 μg/ml of biotin-PPS1D1 for two hours. After washing unbound peptoid using TBS-T, bound biotin-PPS1D1 was detected by immunoblotting with Streptavidin-HRP antibody at 1:750 dilution (BioLegend).
One of the major questions arising at this point is how PPS1 or PPS1D1 specifically recognizes PS over PC, as both lipids have negatively charged phosphate head groups. To address this specificity concern, ELISA-like binding assay were expanded to include other membrane phospholipids such as phosphatidylethanolamine (PE), sphingomyelin (SM), phosphatidic acid (PA), phosphatidylinositol (PI) and phosphatidylglycerol (PG). […] This additional negative charge can be responsible for the interaction with the positively charged region of PPS1 or PPS1D1, while the hydrophobic regions of PPS1 or PPS1D1 may interact with hydrophobic tail groups of the lipids through van der Waals forces. […] The membrane was treated with biotin labeled PPS1D1 and binding was detected by immunoblotting with streptavidin-HRP. […] It has been reported that PS can form a bilayer lamellar and reverse hexagonal phase. PS is mainly in a lamellar phase after hydration at physiological pH. By validating our binding through an ELISA-like assay and liposomes, PPS1D1 has an equal opportunity to bind to each phase of PS.
Membrane lipid arrays were purchased from Echelon Biosciences, UT. Membranes were blocked in 3% BSA in TBST for 1 hour and then incubated with 2.5 μg/ml of biotin-PPS1D1 for 2 hours. Membranes were washed with TBST and incubated with Streptavidin-HRP antibody at 1:750 dilutions (BioLegend,CA). After washing, signal was detected with ECL western blotting substrate (Life technologies, CA) using Fluorchem 8900 (Alpha Innotech Imaging system).

H460 xenografts = assay: Inhibition of growth of H460 lung cancer xenograft; type: in vivo, mice; details: for tumor size reduction: H460 in nude mice, daily dose of 0.5 mg/mL
Description: Whether PPS1D1 would inhibit tumor growth in a murine model was examined. H460 cells were implanted in nude mice. Tumors were allowed grow until it reach […]. These xenografts were then treated with a daily dose of […] in four different groups that consist of PPS1D1 alone, docetaxel alone, PPS1D1 and docetaxel together or with the control peptoid (PC462D1) alone. Docetaxel is a standard chemotherapeutic treatment for non-small cell carcinoma. The activity of PPSD1 and its ability to work as a combination treatment were examined. […] This effect was extremely potent and the tumor growth was completely controlled. […] It has been reported that chemotherapy and radiation therapy increase the PS flipping in tumor microenvironment. Therefore, Docetaxel might have helped improve binding of PPS1D1 on cancer cell surface that is now displaying an increased amount of PS to be targeted. After the standard chemotherapy and radiation therapy, the target PS is highly abundant for the drug to recognize and attack.
The effect of PPS1D1 on the growth of H460 xenografts implanted in NOD/SCID immunodeficient mice was examined. Immunodeficient animals were chosen to facilitate the growth of human tumor xenografts. […] Therapy with a control peptoid (PC462D1, 0.25 mg/mouse, 3×/week ip), PPS1D1 (0.25 mg/mouse, 3×/week ip), docetaxel (0.5 mg/kg, 2×/week, ip) or the combination of PPS1D1+docetaxel was initiated when tumors were ˜100 mm3 in volume. […] Tumor tissue was harvested after 4 weeks of therapy and assessed for cell proliferation and apoptosis by immunohistochemistry. […] It is clear from studies with bavituximab that standard chemotherapy (e.g., taxanes) increases the exposure of PS resulting in elevated binding of the PS targeting agent. A similar mechanism can underlie the enhanced activity of docetaxel and PPS1D1.
All animals were housed in a pathogen-free facility with continuous access to food and water. Mice were purchased from the core breeding facility at UT Southwestern. Six to eight-week-old female NOD/SCID mice were injected with 2.5×10^6 H460 cells subcutaneously. Tumor volume was followed by twice weekly measurements with Vernier calipers. Animals were randomized and treatment was initiated with mean tumor volume of each group was 100 mm3. Four different groups used were: (I) control PC462D1, (II) PPS1D1, (III) docetaxel, and (IV) combination of PPS1D1+docetaxel. Mice (n=8/group) were treated with PPS1D1 or PC462D1 in saline by ip injection at a dose of 0.25 mg/mouse, 3 times per week on a M-W-F schedule. Docetaxel from the UT Southwestern Clinical pharmacy was diluted in saline and delivered 2×/week ip at 5 mg/kg. Animals were sacrificed after 4 weeks of therapy. Tumor tissue was snap frozen, sectioned and stained with antibodies specific for phospho-Histone H3 (Millipore, #06-570) and cleaved caspase 3 (Cell Signaling, #9664). Reactivity was developed with appropriate fluorescently conjugated secondary antibodies (Jackson ImmunoResearch) and mounted with Prolong Gold with DAPI (Invitrogen), coverslipped and evaluated by fluorescence microscopy.

[2] = 2.5 μg/ml biotin labeled PPS1D1
[3] = 2.5 μg/ml biotin labeled PPS1D1, listed as PPSD1

**Q.** Which “binding to DAG” value [1, 2] does the source give for COc1ccc(CN(CC(=O)N(CCCCN)CC(=O)N[C@@H](CCCCN)C(=O)N[C@H](CCCCN)C(=O)N[C@@H](CCSC)C(=O)NCCCC[C@H](NC(=O)[C@H](CCSC)NC(=O)[C@@H](CCCCN)NC(=O)[C@H](CCCCN)NC(=O)CN(CCCCN)C(=O)CN(Cc2ccc(OC)cc2)C(=O)CN(C(=O)CN(Cc2ccc3c(c2)OCO3)C(=O)CN[C@H](C)c2ccccc2)[C@H](C)c2ccccc2)C(N)=O)C(=O)CN(C(=O)CN(Cc2ccc3c(c2)OCO3)C(=O)CN[C@H](C)c2ccccc2)[C@H](C)c2ccccc2)cc1 [PPS1D1] (I: H-[Nrpe][Gly(N-piperonyl)][Nrpe][N(4-MeOBn)Gly][Nlys]K[dK]MK-NH2 / II: H-[Nrpe][Gly(N-piperonyl)][Nrpe][N(4-MeOBn)Gly][Nlys]K[dK]M; amide I:9-II:C; N-terminus assumed) here?
**A.** The value was “did not show binding; also recorded: does not bind”.

**Q.** And the “binding to PA” value [1, 2]?
**A.** Its value is “a little weaker binding”.

**Q.** What about the “binding to PC” value [1, 2] of the same compound?
**A.** The value was “does not bind”.

**Q.** What about the “binding to PE” value [1, 2] of the same compound?
**A.** Its value is “does not bind”.

**Q.** And the “binding to PG” value [1, 2]?
**A.** The value was “weaker binding”.

**Q.** And the “binding to PI” value [1, 2]?
**A.** Its value is “weaker binding”.

**Q.** What about the “binding to PS” value [1, 2] of the same compound?
**A.** Its value is “strongest binding affinity”.

**Q.** What about the “binding to SM” value [1, 2] of the same compound?
**A.** The value was “does not bind”.

**Q.** What about the “binding to PC” value [1, 3] of the same compound?
**A.** Its value is “clearly not binding”.

**Q.** And the “binding to PE” value [1, 3]?
**A.** The value was “clearly not binding”.

**Q.** What about the “binding to PG” value [1, 3] of the same compound?
**A.** Its value is “very weak level”.

**Q.** And the “binding to PI” value [1, 3]?
**A.** Its value is “very weak level”.

**Q.** And the “binding to SM” value [1, 3]?
**A.** Its value is “clearly not binding”.

**Q.** What about the “tumor growth (tumor volume vs days post therapy initiation)” value (H460 xenografts; H460 in NOD/SCID mice, peptoids 0.25 mg/mouse 3x/week ip, docetaxel 0.5 mg/kg 2x/week ip) of the same compound?
**A.** Its value is “slowed tumor growth”.

**Q.** What about the tumor size reduction (H460 xenografts) of the same compound?
**A.** Its tumor size reduction is “strong tumor burden effect; also recorded: equally effective in reducing the size of the tumors”.

**Q.** What about the tumor size reduction (H460 xenografts; listed as PPSD1) of the same compound?
**A.** Its tumor size reduction is “slightly better effect”.

**Q.** And the animal weight loss (H460 xenografts; at the doses used)?
**A.** The animal weight loss was “did not induce animal weight loss”.

From US10849875B2, “Cancer specific lipid targeted peptidomimetics” (University of Houston System, priority 2015, dated 2020)
